# Tests used:
# [1] = biological target: binding between Nrf2 and Keap1 (Homo sapiens (Human), UniProt Q14145); experiment: FP assay (in vitro): inhibition of Nrf2-Keap1 binding by fluorescence polarization; conditions: GST-fused human Keap1 (325-642) 20 nM, FITC-labeled Nrf2 peptide 10 nM, 2 hr at room temperature
# [2] = tested on: NQO1 activity in Hepa1c1c7 cells; experiment: NAD(P)H: quinone oxidoreductase-1 (NQO1) enzyme induction assay (in vitro); type: cell-based, mouse; conditions: Mus musculus, Hepa-1c1c7, NQO1 activity with 400 nM test compound as a ratio from the base without compound, about 48 hr
# Outline: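 Mouse Hepa1c1c7 hepatoma cells treated 48 hr with 400 nM compound (final). NQO1 activity in lysates read by absorbance at 610 nm; value is background-subtracted activity ratio versus untreated cells.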
# Chain of binding between Nrf2 and Keap1 (Q14145 325-624 limits assumed): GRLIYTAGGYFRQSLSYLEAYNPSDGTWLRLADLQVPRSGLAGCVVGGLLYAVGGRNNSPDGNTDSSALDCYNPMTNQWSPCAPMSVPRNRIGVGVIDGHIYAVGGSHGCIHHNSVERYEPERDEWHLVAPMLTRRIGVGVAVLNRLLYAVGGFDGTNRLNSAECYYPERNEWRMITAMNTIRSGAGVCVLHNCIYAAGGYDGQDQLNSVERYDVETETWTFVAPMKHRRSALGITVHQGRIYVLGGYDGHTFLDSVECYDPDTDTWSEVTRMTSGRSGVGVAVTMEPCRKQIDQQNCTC
SMILES,IC50 [1] [nM],fold induction at 0.4 µM [2]
"CC[C@@H]1CN(Cc2cc(C(CC(=O)O)c3cc(C4CC4)c4c(nnn4C)c3C)cc3ccsc23)S(=O)(=O)c2cc(Cl)cnc2O1 (stereo partly drawn) [Example 49, 3-(7-{[(4R)-8-Chloro-4-ethyl-1,1-dioxido-3,4-dihydro-2H-pyrido[2,3-b][1,4,5]oxathiazepin-2-yl]methyl}-1-benzothiophen-5-yl)-3-(7-cyclopropyl-1,4-dimethyl-1H-benzotriazol-5-yl)propanoic acid]",30 to 100,> 5
"CC[C@@H]1CN(Cc2cc(C(CC(=O)O)c3cc(OC(F)F)c4c(nnn4C)c3C)cc3ccsc23)S(=O)(=O)c2cc(Cl)cnc2O1 (stereo partly drawn) [Example 55, 3-(7-{[(4R)-8-Chloro-4-ethyl-1,1-dioxido-3,4-dihydro-2H-pyrido[2,3-b][1,4,5]oxathiazepin-2-yl]methyl}-1-benzothiophen-5-yl)-3-[7-(difluoromethoxy)-1,4-dimethyl-1H-benzotriazol-5-yl]propanoic acid]",10 to 30,> 5
"CC[C@@H]1CN(Cc2cc(C(CC(=O)O)c3ccc4c(nnn4CC(C)(C)O)c3C)cc3ccsc23)S(=O)(=O)c2cc(Cl)cnc2O1 (stereo partly drawn) [Example 56, 3-(7-{[(4R)-8-Chloro-4-ethyl-1,1-dioxido-3,4-dihydro-2H-pyrido[2,3-b][1,4,5]oxathiazepin-2-yl]methyl}-1-benzothiophen-5-yl)-3-[1-(2-hydroxy-2-methylpropyl)-4-methyl-1H-benzotriazol-5-yl]propanoic acid]",10 to 30,> 5
"CC[C@@H]1CN(Cc2cc(C(CC(=O)O)c3ccc4c(nnn4CCCS(C)(=O)=O)c3C)cc3ccsc23)S(=O)(=O)c2cc(Cl)cnc2O1 (stereo partly drawn) [Example 57, 3-(7-{[(4R)-8-Chloro-4-ethyl-1,1-dioxido-3,4-dihydro-2H-pyrido[2,3-b][1,4,5]oxathiazepin-2-yl]methyl}-1-benzothiophen-5-yl)-3-{4-methyl-1-[3-(methylsulfonyl)propyl]-1H-benzotriazol-5-yl}propanoic acid]",10 to 30,> 5
"CC[C@@H]1CN(Cc2cc(C(CC(=O)O)c3ccc4c(nnn4CCN(C)C)c3C)cc3ccsc23)S(=O)(=O)c2cc(Cl)cnc2O1 (stereo partly drawn) [Example 58, 3-(7-{[(4R)-8-Chloro-4-ethyl-1,1-dioxido-3,4-dihydro-2H-pyrido[2,3-b][1,4,5]oxathiazepin-2-yl]methyl}-1-benzothiophen-5-yl)-3-{1-[2-(dimethylamino)ethyl]-4-methyl-1H-benzotriazol-5-yl}propanoic acid]",30 to 100,> 5
"CC[C@@H]1CN(Cc2cc(C(CC(=O)O)c3cnc4c(nnn4C)c3C)cc3ccsc23)S(=O)(=O)c2cc(Cl)cnc2O1 (stereo partly drawn) [Example 59, 3-(7-{[(4R)-8-Chloro-4-ethyl-1,1-dioxido-3,4-dihydro-2H-pyrido[2,3-b][1,4,5]oxathiazepin-2-yl]methyl}-1-benzothiophen-5-yl)-3-(3,7-dimethyl-3H-[1,2,3]triazolo[4,5-b]pyridin-6-yl)propanoic acid]",10 to 30,> 5
"CC[C@@H]1CN(Cc2cc(C(CC(=O)O)c3ccc4c(nnn4CC(F)(F)F)c3C)cc3ccsc23)S(=O)(=O)c2cc(Cl)cnc2O1 (stereo partly drawn) [Example 60, 3-(7-{[(4R)-8-Chloro-4-ethyl-1,1-dioxido-3,4-dihydro-2H-pyrido[2,3-b][1,4,5]oxathiazepin-2-yl]methyl}-1-benzothiophen-5-yl)-3-[4-methyl-1-(2,2,2-trifluoroethyl)-1H-benzotriazol-5-yl]propanoic acid]",10 to 30,> 5
"CC[C@@H]1CN(Cc2cc(C(CC(=O)O)c3ccc4c(nnn4C)c3C)cc3ccsc23)[C@@H](C)c2ncccc2O1 (stereo partly drawn) [Example 61, 3-(1,4-Dimethyl-1H-benzotriazol-5-yl)-3-(7-{[(2R,5S)-2-ethyl-5-methyl-2,3-dihydropyrido[2,3-f][1,4]oxazepin-4(5H)-yl]methyl}-1-benzothiophen-5-yl)propanoic acid]",10 to 30,> 5
"CC[C@@H]1CN(Cc2cc([C@@H](CC(=O)O)c3ccc4c(nnn4C)c3C)cc3ccsc23)[C@@H](C)c2ncccc2O1 [Example 63, (3R)-3-(1,4-Dimethyl-1H-benzotriazol-5-yl)-3-(7-{[(2R,5S)-2-ethyl-5-methyl-2,3-dihydropyrido[2,3-f][1,4]oxazepin-4(5H)-yl]methyl}-1-benzothiophen-5-yl)propanoic acid]",10 to 30,> 5

# More lines, main results first:
IC50 [1] [nM],SMILES,fold induction at 0.4 µM [2]
≤ 10,"Cc1c([C@@H](CC(=O)O)c2cc3c(c(CN4CC5(CC5)Oc5ncc(Cl)cc5S4(=O)=O)c2)CCC3)ccc2c1nnn2C [Example 43, (3S)-3-{7-[(8′-Chloro-1′,1′-dioxido-spiro[cyclopropane-1,4′-pyrido[2,3-b][1,4,5]oxathiazepine]-2′(3′H)-yl)methyl]-2,3-dihydro-1H-inden-5-yl}-3-(1,4-dimethyl-1H-benzotriazol-5-yl)propanoic acid]",> 5
≤ 10,"CC[C@@H]1CN(Cc2cc([C@@H](CC(=O)O)c3cc(C)c4c(nnn4C)c3C)cc3c2CCC3)S(=O)(=O)c2cc(Cl)cnc2O1 [Example 44, (3R)-3-(7-{[(4R)-8-Chloro-4-ethyl-1,1-dioxido-3,4-dihydro-2H-pyrido[2,3-b][1,4,5]oxathiazepin-2-yl]methyl}-2,3-dihydro-1H-inden-5-yl)-3-(1,4,7-trimethyl-1H-benzotriazol-5-yl)propanoic acid]",3 to 5
≤ 10,"CC[C@@H]1CN(Cc2cc([C@@H](CC(=O)O)c3cc(OC(F)(F)F)c4c(nnn4C)c3C)cc3ccsc23)S(=O)(=O)c2cc(Cl)cnc2O1 [Example 45, (3R)-3-(7-{[(4R)-8-Chloro-4-ethyl-1,1-dioxido-3,4-dihydro-2H-pyrido[2,3-b][1,4,5]oxathiazepin-2-yl]methyl}-1-benzothiophen-5-yl)-3-[1,4-dimethyl-7-(trifluoromethoxy)-1H-benzotriazol-5-yl]propanoic acid]",> 5
10 to 30,"CC[C@@H]1CN(Cc2cc([C@H](CC(=O)O)c3cc(OC(F)(F)F)c4c(nnn4C)c3C)cc3ccsc23)S(=O)(=O)c2cc(Cl)cnc2O1 [Example 46, (3S)-3-(7-{[(4R)-8-Chloro-4-ethyl-1,1-dioxido-3,4-dihydro-2H-pyrido[2,3-b][1,4,5]oxathiazepin-2-yl]methyl}-1-benzothiophen-5-yl)-3-[1,4-dimethyl-7-(trifluoromethoxy)-1H-benzotriazol-5-yl]propanoic acid]",3 to 5
≤ 10,"CC[C@@H]1CN(Cc2cc([C@@H](CC(=O)O)c3ccc4c(nnn4C)c3C)cc3c2CCC3)S(=O)(=O)c2cc(C)cnc2O1 [Example 47, (3R)-3-(1,4-Dimethyl-1H-benzotriazol-5-yl)-3-(7-{[(4R)-4-ethyl-8-methyl-1,1-dioxido-3,4-dihydro-2H-pyrido[2,3-b][1,4,5]oxathiazepin-2-yl]methyl}-2,3-dihydro-1H-inden-5-yl)propanoic acid]",3 to 5
≤ 10,"CC[C@@H]1CN(Cc2cc([C@@H](CC(=O)O)c3ccc4c(nnn4C)c3C)cc3c2CCC3)S(=O)(=O)c2cccc(Cl)c2O1 [Example 48, (3R)-3-(7-{[(4R)-6-Chloro-4-ethyl-1,1-dioxido-3,4-dihydro-2H-5,1,2-benzoxathiazepin-2-yl]methyl}-2,3-dihydro-1H-inden-5-yl)-3-(1,4-dimethyl-1H-benzotriazol-5-yl)propanoic acid]",> 5
10 to 30,"CC[C@@H]1CN(Cc2cc(C(CC(=O)O)c3cc(OC)c4c(nnn4C)c3C)cc3ccsc23)S(=O)(=O)c2cc(Cl)cnc2O1 (stereo partly drawn) [Example 50, 3-(7-{[(4R)-8-Chloro-4-ethyl-1,1-dioxido-3,4-dihydro-2H-pyrido[2,3-b][1,4,5]oxathiazepin-2-yl]methyl}-1-benzothiophen-5-yl)-3-(7-methoxy-1,4-dimethyl-1H-benzotriazol-5-yl)propanoic acid]",> 5
10 to 30,"CC[C@@H]1CN(Cc2cc(C(CC(=O)O)c3cc(Cl)c4c(nnn4C)c3C)cc3ccsc23)S(=O)(=O)c2cc(Cl)cnc2O1 (stereo partly drawn) [Example 51, 3-(7-Chloro-1,4-dimethyl-1H-benzotriazol-5-yl)-3-(7-{[(4R)-8-chloro-4-ethyl-1,1-dioxido-3,4-dihydro-2H-pyrido[2,3-b][1,4,5]oxathiazepin-2-yl]methyl}-1-benzothiophen-5-yl)propanoic acid]",3 to 5
10 to 30,"CC[C@@H]1CN(Cc2cc(C(CC(=O)O)c3cc(C#N)c4c(nnn4C)c3C)cc3ccsc23)S(=O)(=O)c2cc(Cl)cnc2O1 (stereo partly drawn) [Example 52, 3-(7-{[(4R)-8-Chloro-4-ethyl-1,1-dioxido-3,4-dihydro-2H-pyrido[2,3-b][1,4,5]oxathiazepin-2-yl]methyl}-1-benzothiophen-5-yl)-3-(7-cyano-1,4-dimethyl-1H-benzotriazol-5-yl)propanoic acid]",> 5
10 to 30,"CC[C@@H]1CN(Cc2cc(C(CC(=O)O)c3cc(C(F)(F)F)c4c(nnn4C)c3C)cc3ccsc23)S(=O)(=O)c2cc(Cl)cnc2O1 (stereo partly drawn) [Example 53, 3-(7-{[(4R)-8-Chloro-4-ethyl-1,1-dioxido-3,4-dihydro-2H-pyrido[2,3-b][1,4,5]oxathiazepin-2-yl]methyl}-1-benzothiophen-5-yl)-3-[1,4-dimethyl-7-(trifluoromethyl)-1H-benzotriazol-5-yl]propanoic acid]",> 5
10 to 30,"CC[C@@H]1CN(Cc2cc(C(CC(=O)O)c3cc(OC(F)(F)F)c4c(nnn4C)c3C)cc3ccsc23)S(=O)(=O)c2cc(Cl)cnc2O1 (stereo partly drawn) [Example 54, 3-(7-{[(4R)-8-Chloro-4-ethyl-1,1-dioxido-3,4-dihydro-2H-pyrido[2,3-b][1,4,5]oxathiazepin-2-yl]methyl}-1-benzothiophen-5-yl)-3-[1,4-dimethyl-7-(trifluoromethoxy)-1H-benzotriazol-5-yl]propanoic acid]",> 5
